# Reference: ChEMBL document CHEMBL4837240 (J Med Chem, 2021)
# The source made the active and inactive calls. No cut-off for these calls is given here.
# Assays:
# [1] = system: MDA-MB-231; assay: Antimigratory activity against human MDA-MB-231 cells assessed as suppression of migration measured after 24 hrs by Wound healing assay; type: functional, cell-based
# [2] = Toxicity in BALB/c mouse xenografted with MDA-MB-231 cells assessed as LDH level in blood at 300 mg/kg, po; type: organism-based; settings: in vivo
# [3] = Toxicity in BALB/c mouse xenografted with MDA-MB-231 cells assessed as ALT level in blood at 300 mg/kg, po; type: organism-based; settings: in vivo
# [4] = system: MDA-MB-436; assay: Anticancer activity against human MDA-MB-436 cells assessed as cell viability incubated for 48 hrs by MTT assay; settings: MDA-MB-436, 48 h
# [5] = biological target: Maternal embryonic leucine zipper kinase (Homo sapiens, UniProt Q14680); assay: Inhibition of human MELK assessed as residual kinase activity at 1 uM relative to control
# [6] = biological target: T1, Vascular endothelial growth factor receptor 3 (Homo sapiens, UniProt P35916); assay: Inhibition of human FLT4/VEGFR3
# [7] = Antiproliferative activity against VEGF-C-induced human dermal lymphatic endothelial cells assessed as cell viability incubated for 48 hrs by CCK-8 assay; type: functional, tissue-based; settings: HDLEC
# [8] = Antiproliferative activity against VEGF-D-induced human dermal lymphatic endothelial cells assessed as cell viability incubated for 48 hrs by CCK-8 assay; type: functional, tissue-based; settings: HDLEC
# [9] = system: HDLEC; assay: Inhibition of cell migration in VEGF-C-induced human dermal lymphatic endothelial cells assessed as cell migration at 100 nM incubated for 24 hrs by inverted microscopy based by scratch wound healing assay; type: functional, tissue-based
# [10] = biological target: T1, Vascular endothelial growth factor receptor 3; assay: Inhibition of VEGFR3 phosphorylation in human dermal lymphatic endothelial cells incubated for 24 hrs by Western blot analysis; type: tissue-based; settings: HDLEC
# [11] = biological target: T1, Vascular endothelial growth factor receptor 3; assay: Inhibition of VEGFR3 in human dermal lymphatic endothelial cells assessed as inhibition of ERK1/2 phosphorylation incubated for 24 hrs by Western blot analysis; settings: HDLEC
# [12] = system: MDA-MB-231; assay: Inhibition of colony formation in human MDA-MB-231 cells at 2.5 uM incubated for 24 hrs by clonogenic assay; type: functional
# [13] = system: MDA-MB-231; assay: Induction of apoptosis in human MDA-MB-231 cells assessed as accumulation at G1 phase incubated for 48 hrs by flow cytometry; type: functional, cell-based
# [14] = system: MDA-MB-436; assay: Induction of apoptosis in human MDA-MB-436 cells assessed as accumulation at G1 phase incubated for 48 hrs by flow cytometry; type: functional, cell-based
# [15] = system: MDA-MB-436; assay: Induction of apoptosis in human MDA-MB-436 cells assessed as increase in apoptotic cells incubated for 24 hrs by Hoechst 33258 staining under a fluorescence microscopy; type: functional, cell-based
# [16] = system: MDA-MB-231; assay: Induction of apoptosis in human MDA-MB-231 cells assessed as upregulation of Bax expression up to 10 uM incubated for 24 hrs by Western blotting analysis; type: functional, cell-based; settings: dose microM <=10, time 24.0 hrs
# [17] = system: MDA-MB-231; assay: Induction of apoptosis in human MDA-MB-231 cells assessed as cleaved caspase 3 up to 10 uM incubated for 24 hrs by Western blotting analysis; type: functional, cell-based; settings: dose microM <=10, time 24.0 hrs
# [18] = system: MDA-MB-436; assay: Antimigratory activity against human MDA-MB-436 cells assessed as suppression of migration measured after 24 hrs by Wound healing assay; type: functional, cell-based
# [19] = system: MDA-MB-231; assay: Antimigratory activity against human MDA-MB-231 cells assessed as reduction in cell migration incubated for 12 hrs by transwell assay; type: functional, cell-based
# [20] = system: MDA-MB-436; assay: Antimigratory activity against human MDA-MB-436 cells assessed as reduction in cell migration incubated for 12 hrs by transwell assay; type: functional, cell-based
# [21] = system: MDA-MB-231; assay: Upregulation of E-cadherin protein expression in human MDA-MB-231 cells up to 10 uM incubated for 24 hrs by Western blot analysis; type: functional, cell-based; settings: dose microM <=10, time 24.0 hrs
# [22] = biological target: T1, Vascular endothelial growth factor receptor 3; assay: Inhibition of VEGFR3 phosphorylation in human MDA-MB-231 cells at 2.5 uM incubated for 24 hrs by Western blot analysis; type: cell-based
# [23] = biological target: T1, Vascular endothelial growth factor receptor 3; assay: Inhibition of VEGFR3 in human MDA-MB-231 cells assessed as inhibition of ERK1/2 phosphorylation at 2.5 uM incubated for 24 hrs by Western blot analysis; type: cell-based
# [24] = biological target: T1, Vascular endothelial growth factor receptor 3; assay: Inhibition of VEGFR3 in human MDA-MB-436 cells assessed as inhibition of ERK1/2 phosphorylation at 2.5 uM incubated for 24 hrs by Western blot analysis; type: cell-based
# [25] = Half life in Sprague-Dawley rat at 10 mg/kg, po by LC-MS analysis; type: ADME, organism-based; settings: in vivo
# [26] = Cmax in Sprague-Dawley rat at 10 mg/kg, po by LC-MS analysis; type: ADME, organism-based; set-up: route oral, dose 10 mg/kg; settings: in vivo
# [27] = AUC (0 to t) in Sprague-Dawley rat at 1 mg/kg, iv by LC-MS analysis; type: ADME, organism-based; set-up: dose 1 mg/kg; settings: in vivo
# [28] = AUC (0 to infinity) in Sprague-Dawley rat at 1 mg/kg, iv by LC-MS analysis; type: ADME, organism-based; set-up: time infinity, route intravenous, dose 1 mg/kg; settings: in vivo
# [29] = Bioavailability in Sprague-Dawley rat at 1 mg/kg, iv by LC-MS analysis; type: ADME, organism-based; settings: in vivo
# [30] = Antitumor activity against human MDA-MB-231 cells xenografted in BALB/c mouse assessed as tumor growth inhibition at 50 mg/kg, po relative to control; type: functional; settings: read-out: TGI
# [31] = Toxicity in BALB/c mouse xenografted with MDA-MB-231 cells assessed as effect on body weight at 50 mg/kg, po; type: organism-based; settings: in vivo
# [32] = Toxicity in BALB/c mouse xenografted with MDA-MB-231 cells assessed as creatinine level in blood at 300 mg/kg, po; type: organism-based; settings: in vivo
# [33] = Toxicity in BALB/c mouse xenografted with MDA-MB-231 cells assessed as change in heart at 300 mg/kg, po by hematoxylin and eosin staining based analysis; type: organism-based; settings: in vivo
# [34] = Toxicity in BALB/c mouse xenografted with MDA-MB-231 cells assessed as change in liver at 300 mg/kg, po by hematoxylin and eosin staining based analysis; type: organism-based; settings: in vivo
# [35] = Toxicity in BALB/c mouse xenografted with MDA-MB-231 cells assessed as change in lung at 300 mg/kg, po by hematoxylin and eosin staining based analysis; type: organism-based; settings: in vivo
# [36] = Toxicity in BALB/c mouse xenografted with MDA-MB-231 cells assessed as change in kidney at 300 mg/kg, po by hematoxylin and eosin staining based analysis; type: organism-based; settings: in vivo
# [37] = system: Mus musculus; assay: Decrease in E-cadherin level in BALB/c mouse xenografted with MDA-MB-231 cells in tumor tissue at 25 mg/kg, po by immunohistochemistry analysis; type: functional, organism-based
# [38] = system: Mus musculus; assay: Decrease in LYVE-1 level in BALB/c mouse xenografted with MDA-MB-231 cells in tumor tissue at 25 mg/kg, po by immunohistochemistry analysis; type: functional, organism-based
# [39] = system: Mus musculus; assay: Decrease in p-VEGFR3 level in BALB/c mouse xenografted with MDA-MB-231 cells in tumor tissue at 25 mg/kg, po by immunohistochemistry analysis; type: functional, organism-based
# [40] = biological target: Vascular endothelial growth factor receptor 3 (Mus musculus) (UniProt P35917); assay: In vivo inhibition of VEGFR3 phosphorylation in BALB/c mouse xenografted with MDA-MB-231 cells assessed as decrease in AKT phosphorylation at 25 mg/kg, po by immunohistochemistry analysis; type: functional, organism-based
# [41] = system: MDA-MB-231; assay: Antimetastatic activity against human MDA-MB-231 cells injected into vein of BALB/c mouse lung metastatic model assessed as less lung metastatic nodules at 50 mg/kg, po once a day measured on day 21; type: functional, organism-based; settings: time 21.0 day
# T1 sequence (P35916 whole entry): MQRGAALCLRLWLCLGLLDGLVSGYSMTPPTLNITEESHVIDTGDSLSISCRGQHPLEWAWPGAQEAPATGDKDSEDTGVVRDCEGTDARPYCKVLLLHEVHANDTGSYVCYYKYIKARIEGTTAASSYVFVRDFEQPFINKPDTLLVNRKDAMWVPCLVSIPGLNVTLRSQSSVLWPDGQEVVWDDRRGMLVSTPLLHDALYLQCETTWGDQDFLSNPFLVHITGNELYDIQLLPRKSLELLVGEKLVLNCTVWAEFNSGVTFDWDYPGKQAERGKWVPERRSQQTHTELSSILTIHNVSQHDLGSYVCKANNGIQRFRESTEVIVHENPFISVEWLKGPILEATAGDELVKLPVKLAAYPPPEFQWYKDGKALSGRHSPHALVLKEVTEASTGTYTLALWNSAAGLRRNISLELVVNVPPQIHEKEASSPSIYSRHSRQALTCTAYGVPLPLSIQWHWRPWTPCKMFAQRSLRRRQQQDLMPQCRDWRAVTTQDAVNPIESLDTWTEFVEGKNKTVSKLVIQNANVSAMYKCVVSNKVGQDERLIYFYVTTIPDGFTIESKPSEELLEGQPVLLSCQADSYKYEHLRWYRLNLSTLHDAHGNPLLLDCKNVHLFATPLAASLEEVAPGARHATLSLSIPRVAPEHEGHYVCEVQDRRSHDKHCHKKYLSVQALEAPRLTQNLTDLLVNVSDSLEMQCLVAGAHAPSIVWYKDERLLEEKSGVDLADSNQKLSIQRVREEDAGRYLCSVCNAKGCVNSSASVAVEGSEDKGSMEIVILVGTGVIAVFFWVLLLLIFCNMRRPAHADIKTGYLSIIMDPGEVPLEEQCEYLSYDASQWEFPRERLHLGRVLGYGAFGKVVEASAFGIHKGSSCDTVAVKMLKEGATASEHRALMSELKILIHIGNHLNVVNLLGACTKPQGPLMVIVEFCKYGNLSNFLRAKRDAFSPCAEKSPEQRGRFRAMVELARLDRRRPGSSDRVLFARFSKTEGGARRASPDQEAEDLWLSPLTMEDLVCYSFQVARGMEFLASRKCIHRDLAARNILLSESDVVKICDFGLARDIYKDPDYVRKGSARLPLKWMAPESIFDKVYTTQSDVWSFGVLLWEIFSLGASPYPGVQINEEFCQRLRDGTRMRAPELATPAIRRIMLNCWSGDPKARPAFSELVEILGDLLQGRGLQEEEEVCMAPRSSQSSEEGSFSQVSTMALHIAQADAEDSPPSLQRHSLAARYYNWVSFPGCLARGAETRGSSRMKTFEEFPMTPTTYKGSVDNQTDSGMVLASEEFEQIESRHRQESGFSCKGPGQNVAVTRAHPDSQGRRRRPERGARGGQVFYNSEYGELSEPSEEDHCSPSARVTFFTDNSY
# Maternal embryonic leucine zipper kinase, sequence (Q14680 whole entry, looked up): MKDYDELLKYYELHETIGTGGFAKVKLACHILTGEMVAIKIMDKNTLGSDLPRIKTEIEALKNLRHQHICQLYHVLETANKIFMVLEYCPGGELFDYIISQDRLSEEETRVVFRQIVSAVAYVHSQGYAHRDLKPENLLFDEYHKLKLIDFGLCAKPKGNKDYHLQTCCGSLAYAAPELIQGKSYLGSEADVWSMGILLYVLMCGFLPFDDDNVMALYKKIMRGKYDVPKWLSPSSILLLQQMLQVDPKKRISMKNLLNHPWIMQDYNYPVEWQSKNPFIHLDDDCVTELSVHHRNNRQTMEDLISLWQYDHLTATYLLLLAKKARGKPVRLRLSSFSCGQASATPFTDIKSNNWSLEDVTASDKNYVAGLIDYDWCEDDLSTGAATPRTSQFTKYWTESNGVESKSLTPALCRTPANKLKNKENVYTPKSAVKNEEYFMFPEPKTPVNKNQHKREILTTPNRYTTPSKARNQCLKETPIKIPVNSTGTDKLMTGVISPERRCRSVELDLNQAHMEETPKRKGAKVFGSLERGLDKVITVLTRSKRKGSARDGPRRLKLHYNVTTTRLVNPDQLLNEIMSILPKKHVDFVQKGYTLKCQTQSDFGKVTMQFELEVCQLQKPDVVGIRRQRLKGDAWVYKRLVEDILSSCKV
# Vascular endothelial growth factor receptor 3 (Mus musculus), sequence (P35917 whole entry): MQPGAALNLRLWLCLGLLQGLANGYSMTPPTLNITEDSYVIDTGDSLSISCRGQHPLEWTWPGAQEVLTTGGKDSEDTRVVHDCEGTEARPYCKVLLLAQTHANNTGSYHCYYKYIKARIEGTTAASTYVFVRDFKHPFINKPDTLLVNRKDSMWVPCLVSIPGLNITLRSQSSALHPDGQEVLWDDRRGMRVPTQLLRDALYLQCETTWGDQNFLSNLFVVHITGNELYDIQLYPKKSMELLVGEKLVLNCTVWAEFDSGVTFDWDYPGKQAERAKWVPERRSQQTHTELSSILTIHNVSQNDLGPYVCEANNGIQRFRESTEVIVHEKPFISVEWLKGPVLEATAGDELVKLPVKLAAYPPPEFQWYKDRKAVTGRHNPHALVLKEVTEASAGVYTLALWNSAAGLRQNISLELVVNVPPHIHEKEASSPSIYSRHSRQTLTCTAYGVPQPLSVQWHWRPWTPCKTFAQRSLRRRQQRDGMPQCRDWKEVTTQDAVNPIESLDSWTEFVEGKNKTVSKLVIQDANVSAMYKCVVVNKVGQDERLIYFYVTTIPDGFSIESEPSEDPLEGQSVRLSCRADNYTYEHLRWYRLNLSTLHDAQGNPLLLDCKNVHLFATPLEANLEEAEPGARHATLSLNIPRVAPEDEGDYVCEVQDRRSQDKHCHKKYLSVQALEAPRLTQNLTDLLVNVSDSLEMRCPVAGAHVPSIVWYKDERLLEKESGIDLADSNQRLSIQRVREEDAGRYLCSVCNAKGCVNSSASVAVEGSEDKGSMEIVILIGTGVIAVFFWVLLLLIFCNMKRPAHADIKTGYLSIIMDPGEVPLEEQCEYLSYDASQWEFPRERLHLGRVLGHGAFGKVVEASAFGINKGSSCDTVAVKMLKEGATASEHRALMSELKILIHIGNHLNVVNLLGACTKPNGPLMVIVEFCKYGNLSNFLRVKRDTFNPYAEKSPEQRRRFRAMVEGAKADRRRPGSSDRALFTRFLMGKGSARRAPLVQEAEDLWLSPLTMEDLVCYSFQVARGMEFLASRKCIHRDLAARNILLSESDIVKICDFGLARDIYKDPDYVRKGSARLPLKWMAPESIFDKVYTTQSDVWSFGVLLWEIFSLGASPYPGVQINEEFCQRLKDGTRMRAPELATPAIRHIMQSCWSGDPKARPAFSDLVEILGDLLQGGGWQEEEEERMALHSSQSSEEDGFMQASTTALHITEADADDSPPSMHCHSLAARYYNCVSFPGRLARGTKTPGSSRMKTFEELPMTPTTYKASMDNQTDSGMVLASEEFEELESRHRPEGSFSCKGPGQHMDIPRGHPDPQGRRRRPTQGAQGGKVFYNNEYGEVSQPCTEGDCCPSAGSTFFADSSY
smiles,measurement,setting,value
CN1CCN(c2ccc(-c3cc4c(N5CCN(C(=O)Nc6ccc(Cl)c(C(F)(F)F)c6)CC5)ncnc4s3)cc2)CC1,Activity,[1],Active
same,Activity,[2],Non-Toxic
same,Activity,[3],Non-Toxic
same,IC50,[4],3500 nM
same,Activity,[5],17%
same,IC50,[6],110 nM
same,IC50,[7],250 nM
same,IC50,[8],680 nM
same,Activity,[9],Active
same,inhibition,[10],Dose-Dependent Effect
same,inhibition,[11],Dose-Dependent Effect
same,inhibition at 2.5 µM,[12],100%
same,Activity,[13],Dose-Dependent Effect
same,Activity,[14],Dose-Dependent Effect
same,Activity,[15],Dose-Dependent Effect
same,Activity,[16],Active
same,Activity,[17],Active
same,Activity,[18],Active
same,Activity,[19],Active
same,Activity,[20],Active
same,Activity,[21],Active
same,inhibition,[22],Active
same,inhibition,[23],Active
same,inhibition,[24],Active
same,half-life,[25],16 h
same,Cmax,[26],420 ng/mL
same,AUC(0-t),[27],2570 ng·h/mL
same,AUC(0-inf),[28],3480 ng·h/mL
same,bioavailability,[29],30.9%
same,inhibition in vivo at 50 mg/kg,[30],61.9%
same,Activity,[31],Non-Toxic
same,Activity,[32],Non-Toxic
same,Activity,[33],Non-Toxic
same,Activity,[34],Non-Toxic
same,Activity,[35],Non-Toxic
same,Activity,[36],Non-Toxic
same,Activity,[37],Active
same,Activity,[38],Active
same,Activity,[39],Active
same,Activity,[40],Active
same,Activity,[41],Active
